Reference: US10485785B2, “Method for producing fine powder and the fine powder produced by the same” (Moriroku Chemicals Company, Ltd., priority 2012, dated 2019)
Each block holds one molecule with its values, some of them ahead of it.

What was measured:
Type in all cases: physicochemical
[1] = particle size distribution by laser diffraction (dry and wet method)
Procedure: The pulverized particles were dispersed by compressed air (0.4 MPa) and then, the dry particle size distribution was measured by a laser diffraction apparatus for measuring particle size distribution (LMS-30, SEISHIN ENTERPRISE CO., LTD.). On the other hand, the pulverized particles were dispersed in purified water by ultrasonic dispersion (30 seconds) and then, the wet particle size distribution was measured by a laser diffraction apparatus for measuring particle size distribution (SALD-2100, SHIMADZU CORPORATION). (3) Crystalline Properties The crystalline states of the bulk powder and the pulverized particles were measured by a X-ray powder diffraction apparatus (RAD-2VC, Rigaku Corporation) and a differential scanning calorimeters (DSC-60, SHIMADZU CORPORATION). […] As stated above, the dry method particle size distribution was measured by the laser diffraction scattering method (Dry method), while the wet method particle size distribution was measured by the laser diffraction method (Wet method). FIG. 32 represents the particle distribution of the bulk powder of phenytoin (OriB), the particle distribution of the phenytoin (Jet) pulverized by the dry method jet mill, and the particle distribution of the phenytoin (LN2) pulverized by the ultra low temperature medium grinding apparatus (LN2 bead mill) according to the present invention, wherein all the particle distributions were the results measured by the aforementioned dry method (Dry method). FIG. 33 represents the particle distribution of the bulk powder of phenytoin (OriB), the particle distribution of the phenytoin (Jet) pulverized by the dry method jet mill, and the particle distribution of the phenytoin (LN2) pulverized by the ultra low temperature medium grinding apparatus (LN2 bead mill) according to the present invention, wherein all the particle distribution were the results measured by the aforementioned wet method (Wet method). […]

[2] = dissolution test, pharmacopoeia second law (paddle method); details: 66.7 mg sample suspended in water with 0.1%(w/v) Tween80, 900 mL test liquid, 75 rpm
Procedure: In order to verify the degree of improvement of solubility of the concurrently pulverized materials, which was obtained by concurrently pulverizing the test compound (phenytoin) made by example 5 and the additive (Hypromellose-Acetate-Succinate (HPMCAS)), the dissolution test was carried out as follows. […] Then the suspension was put into a 900 mL test liquid (50 Mm phosphate buffer solution, pH6.8) and examined under the condition of 75 rpm in compliance with the pharmacopoeia second law (paddle method). A sample consisting of only a compound (phenytoin) to be pulverized was individually pulverized under the conditions shown in Example 5 to obtain a pulverized material, which was used to carry out the dissolution test as follows. A 66.7 mg sample of the pulverized material was suspended in the water, which contains a 0.1%(w/v) Tween80, to obtain a suspension. Then the suspension was put into the 900 mL test liquid and examined under the condition of 75 rpm in compliance with the pharmacopoeia second law (paddle method). […] Before the dissolution test of reference example 1 was carried out, the pulverized material prepared in reference example 1 was mixed with commercially available additives (lactose and L-HPC) in a vessel by hand. Then, the dissolution test was performed as for a mixture of the pulverized material and the additives.

[3] = crystalline properties by powder X-ray diffractometry and differential scanning calorimetry
Procedure: The pulverized particles were dispersed by compressed air (0.4 MPa) and then, the dry particle size distribution was measured by a laser diffraction apparatus for measuring particle size distribution (LMS-30, SEISHIN ENTERPRISE CO., LTD.). On the other hand, the pulverized particles were dispersed in purified water by ultrasonic dispersion (30 seconds) and then, the wet particle size distribution was measured by a laser diffraction apparatus for measuring particle size distribution (SALD-2100, SHIMADZU CORPORATION). (3) Crystalline Properties The crystalline states of the bulk powder and the pulverized particles were measured by a X-ray powder diffraction apparatus (RAD-2VC, Rigaku Corporation) and a differential scanning calorimeters (DSC-60, SHIMADZU CORPORATION). […] FIG. 34 represents the results of powder X-ray diffractometry (XRPD) of the original bulk of phenytoin (OriB), the phenytoin (Jet) pulverized by the dry method jet mill, and the phenytoin (LN2) pulverized by the ultra low temperature medium grinding apparatus (LN2 bead mill) according to the present invention, which were measured by a powder X-ray diffractometry device (RAD-2VC, Rigaku Corporation). […]

[4] = observation by scanning electron microscope (SEM); details: pulverized by the LN2 bead mill, SEM FIG. 2(B)
Source text: The exterior appearance of pulverized particles on which platinum is deposited was observed by a scanning electron microscope (JSM-6060, JEOL LTD.).

particle diameter after individual pulverization ([1]; conditions of Example 5): ≤ 0.1 μm
solubility of the pulverized particles in dissolution test [2]: not improved, or rather became worse
Structure (SMILES): O=C1NC(=O)C(c2ccccc2)(c2ccccc2)N1 [Reference example 1, phenytoin]

degree of crystallinity ([3]; from ΔH value versus original bulk, DSC): 81%
Structure (SMILES): O=C1NC(=O)C(c2ccccc2)(c2ccccc2)N1 [phenytoin (Jet), phenytoin]

rate of submicron size particles relative to particles pulverized by the dry method [1]: three and a half times
percentage of the mass consisting of particles of 1 μm or below (rate of submicron size particles) ([1]; measured up to): up to 32%
crystalline transformation / crystalline descent ([3]; XRPD and DSC, before and after pulverization): crystalline descent was not found
Structure (SMILES): O=C1NC(=O)C(c2ccccc2)(c2ccccc2)N1 [phenytoin (LN2), phenytoin]

dimension of the majority of the particles [4]: ≤ 1 μm
Structure (SMILES): O=C1NC(=O)C(c2ccccc2)(c2ccccc2)N1 [phenytoin]
